Entries after “also recorded” stand apart in the source; their conditions may differ.
Biological target: T1, NFAT1/DNA complex (Homo sapiens, UniProt Q13469)
T1 construct: human NFAT1 protein (residue 399-676, NFAT1-DBD)
T1 sequence (Q13469 399-676): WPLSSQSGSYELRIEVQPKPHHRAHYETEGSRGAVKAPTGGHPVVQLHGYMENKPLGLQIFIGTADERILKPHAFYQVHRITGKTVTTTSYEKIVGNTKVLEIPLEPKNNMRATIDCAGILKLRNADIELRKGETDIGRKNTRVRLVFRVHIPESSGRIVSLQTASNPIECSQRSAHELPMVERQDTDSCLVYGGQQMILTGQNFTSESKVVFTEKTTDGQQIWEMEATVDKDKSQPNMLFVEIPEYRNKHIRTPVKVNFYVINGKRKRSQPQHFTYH
Test: Identification of covalent attachment site on crosslinked NFAT1 (trypsin digestion, Edman sequencing)
Conditions: for peptide identified by Edman sequencing of the DNA-peptide conjugate: trypsin digested crosslinked NFAT1/DNA complex
Experimental: FIG. 9A-FIG. 9D depicts characterization of BFPX-mediated crosslinking reaction, to identify the covalent attachment site on the protein. (FIG. 9A) A large scale of crosslinking reaction corresponding to lane 11 of FIG. 7 was carried out. The reaction mixture was separated on FPLC using a mono-Q column (yellow trace: conductance, red trace: salt gradient (A:10 mM Hepes pH 7.4; B: 10 mM Hepes 7.4, IM NaCl), blue trace: UV254 nm absorbance). […] The flow-through contains only free NFAT (lane 4), peak I contains predominantly the complex (lane 5) and peak II contains predominantly free DNA (lane 6). (FIG. 9C) The purified NFAT/DNA complex was digested with trypsin and the DNA-peptide conjugate was purified and sequenced by Edman degradation: Top panel, a schematic picture of the DNA binding domain of human NFAT1 (residue 399-676) used in the study, the sequence of loop 478-491, RITGKTVTTTSYEK (SEQ ID NO.: 1), is shown above; Middle panel: a schematic picture of the covalently capture NFAT/DNA complex, the DNA sequence (5′-[…]-3′ (SEQ ID NO: 2) and its complementary strand 3′-[…]-5′ (SEQ ID NO: 3)) used in the study is shown with the two potential probe (yellow wedge and start) binding site (TpA) indicated). The underlined region is the NFAT binding motif. Bottom panel: Edman sequencing results ([…], T480, and G481) identify the loop of 478-491, RITGKTVTTTSYEK (SEQ ID NO: 1), as the attachment site. […]
FIG. 13A depicts characterization of the BFPX-mediated crosslinking reaction: Identification of covalent attachment sites on the crosslinked proteins. […] The reaction mixtures were separated on FPLC using a mono-Q column (yellow trace: conductance, red trace: salt gradient (buffer A:10 mM Hepes pH 7.4; buffer B: 10 mM Hepes 7.4, 1 M NaCl), blue trace: UV254 nm absorbance). […]
We analyzed the covalent attachment sites on the NFAT/DNA complexes crosslinked by SPB-AAD and SPB-PEG4-AAD using a work flow shown in FIG. 13A. […] The sequencing results were generally noisy with multiple amino acids detected in each cycle. […]

peptide identified by Edman sequencing of the DNA-peptide conjugate | SMILES | covalent attachment site on NFAT1 (human NFAT1 DBD residue 399-676)
APTGGH | C#CCCC1(CCNC(=O)CCOCCOCCOCCOCCNC(=O)CCCOc2c3occc3cc3ccc(=O)oc23)N=N1 [SPB-PEG4-AAD, N-(2-(3-(but-3-yn-1-yl)-3H-diazirin-3-yl)ethyl)-1-(4-((7-oxo-7H-furo[3,2-g]chromen-9-yl)oxy)butanamido)-3,6,9,12-tetraoxapentadecan-15-amide] | residues 434 and 452; also recorded: loop of 434-452
IVGN and Ile, Thr, and Gly | C#CCCC1(CCNC(=O)CCCOc2c3occc3cc3ccc(=O)oc23)N=N1 [SPB-AAD, N-(2-(3-(but-3-yn-1-yl)-3H-diazirin-3-yl)ethyl)-4-((7-oxo-7H-furo[3,2-g]chromen-9-yl)oxy)butanamide] | –
